Earlier results as cited in patent US4138582A, “Cycloalkenyl analogues of prostaglandin A” (Miles Laboratories, Inc., priority 1977, dated 1979).
Entries after “also recorded” stand apart in the source; their conditions may differ. Like-named read-outs stand apart in the source and are kept apart here.

Assays:
gastric secretion [1] = conditions: dogs
growth hormone = conditions: rats
gastric secretion [2] = conditions: man
blood platelets = conditions: in vitro
human platelets = conditions: result in words
[3] = system: female reproductive system; conditions: fertility, labor, abortion, menstruation

| SMILES | inhibition of gastric secretion (gastric secretion [1]) | growth hormone release / synthesis (growth hormone) | inhibition of gastric secretion (gastric secretion [2]) | inhibition of thrombogenesis (blood platelets) | inhibition of platelet aggregation by natural prostaglandin (human platelets) | effects in the female reproductive system [3] |
| --- | --- | --- | --- | --- | --- | --- |
| CCCCC[C@H](O)/C=C/[C@H]1C=CC(=O)[C@@H]1CCCCCCC(=O)O [PGA1] | inhibit gastric secretion | increased synthesis of that hormone | exhibits similar activity in man | – | – | – |
| CCCCC[C@H](O)/C=C/[C@H]1[C@H](O)CC(=O)[C@@H]1CCCCCCC(=O)O [PGE1] | inhibit gastric secretion | increase release of growth hormone | – | inhibits thrombogenesis in vitro | displays similar activity | – |
| CCCCC[C@H](O)/C=C/[C@H]1[C@H](O)CC(=O)[C@@H]1C/C=C\CCCC(=O)O [PGE2] | inhibit gastric secretion | increase release of growth hormone | – | – | – | exerts potent oxytocic effects in inducing labor |
| CCCCC[C@H](O)/C=C/[C@@H]1[C@@H](C/C=C\CCCC(=O)O)[C@@H](O)C[C@H]1O [PGF2α] | – | – | – | – | – | has centragestational effects; also recorded: appears to be involved in the mechanism of menstruation; also recorded: induces spontaneous abortions in early pregnancy |
